Five molecules from patent US6221867A, “4,5-pyrazinoxindoles” (Hoffmann-La Roche Inc., priority 1999, dated 2001) can be followed below.

The assay concerns the target rat SAPK (isoform β) (Rattus norvegicus, UniProt P49187). The experiment in a line: SAPK FlashPlate Assay (inhibition of cJun phosphorylation). Particulars: for SAPK % Inhibition: at test concentration 0.5 μM, GST-cJun substrate, 33P-ATP. The class given is biochemical. How it is done:
"IC50 " refers to the concentration of a particular 4,5-pyrazinoxindole required to inhibit 50% of cJun phosphorylation, which is a measure of inhibition of SAPK activity. IC50 can be measured, inter alia, using the assay described herein in Example 7, infra.
Human JNK is highly homologous to rat SAPK. To measure the inhibitory activity of test compounds, the compounds were tested in the rat SAPK assay. For the SAPK assay, purified GST-cJun (a chimeric protein containing cJun, a natural substrate of JNK) was coated on 96 well FlashPlates (New England Nuclear, Boston, Mass.). Purified rat SAPK (isoform β, Kyriakis et al. supra) was preincubated with preparations containing MEKK-1 and MKK4 for 30 minutes at 37° C. in assay buffer containing 25 mM HEPES, pH 7.5, 150 mM NaCl, 20 mM MgCl2, 2 mM DTT, 0.001% Tween 20, 1 μM ATP freshly added. In the preincubation step, MEKK-1 phosphorylates and activates MKK-4, which in turn phosphorylates and activates SAPK. The activated SAPK was then added to the cJun coated FlashPlates along with ^33 P-ATP (0.32 μCi per reaction) and test compounds. The plates were incubated for 30 minutes at 37° C., then washed with PBS, 0.01% Tween 20, and counted in the Topcount scintillation counter (Packard Instrument Co., Downers Grove, Ill.). Dilutions of compounds were tested in duplicate in each assay. The percent inhibition of cJun phosphorylation (a measure of inhibition of SAPK activity) was determined by the following formula: [formula]
where "test compound" refers to the average counts per minute of the test duplicates, "nonspecific" refers to the average counts per minute when no SAPK was added, and "total" refers to the average counts per minute when no compound was added.

Chain of rat SAPK (isoform β) (P49187 whole entry, canonical isoform): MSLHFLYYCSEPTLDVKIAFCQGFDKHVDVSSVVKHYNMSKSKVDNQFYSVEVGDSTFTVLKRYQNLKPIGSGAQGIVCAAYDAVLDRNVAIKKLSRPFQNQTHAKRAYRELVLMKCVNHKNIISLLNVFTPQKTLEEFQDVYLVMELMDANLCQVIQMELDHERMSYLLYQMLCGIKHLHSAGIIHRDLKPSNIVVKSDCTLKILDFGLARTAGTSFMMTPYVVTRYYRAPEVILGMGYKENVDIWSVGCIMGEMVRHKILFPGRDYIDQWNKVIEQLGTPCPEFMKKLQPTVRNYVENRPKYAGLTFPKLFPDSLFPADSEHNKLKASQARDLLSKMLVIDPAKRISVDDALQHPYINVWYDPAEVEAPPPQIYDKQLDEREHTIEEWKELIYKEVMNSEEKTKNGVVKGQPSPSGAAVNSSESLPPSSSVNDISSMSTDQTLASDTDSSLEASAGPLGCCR

As for “Mixture of (Z)-3-butyl-7,9-dihydro-9-[(3-methoxy-1H-pyrrol-2-yl)methylene]-2-methyl-8H-pyrrolo[3,2-f]quinoxalin-8-one and (Z)-2-butyl-7,9-dihydro-9-[(3-methoxy-1H-pyrrol-2-yl)methylene]-3-methyl-8H-pyrrolo[3,2-f]quinoxalin-8-one”, the “SAPK % Inhibition” value is at least 50%. Take `COc1cc[nH]c1/C=C1\C(=O)Nc2ccc3nc4c(nc3c21)CCCC4` [E, (Z)-1,3,5,6,7,8-Hexahydro-3-[(3-methoxy-1H-pyrrol-2-yl)methylene]-2H-pyrrolo[3,2-a]phenazin-2-one]: where the note is “read-out: SAPK % Inhibition”, the inhibition at 0.1 µM was at least 50%. As for `COc1cc[nH]c1/C=C1\C(=O)Nc2ccc3nc(-c4ccco4)c(-c4ccco4)nc3c21` [D, (Z)-7,9-Dihydro-2,3-di-(2-furanyl)-9-[(3-methoxy-1H-pyrrol-2-yl)methylene]-8H-pyrrolo[3,2-f]quinoxalin-8-one], where the note is “read-out: SAPK % Inhibition”, the inhibition at 0.5 µM was at least 50%. Regarding “(Z)-7,9-Dihydro-9-[(3-methoxy-1H-pyrrol-2-yl)methylene]-2-methyl-3-phenyl-8H-pyrrolo[3,2-f]quinoxalin-8-one and (Z)-7,9-dihydro-9-[(3-methoxy-1H-pyrrol-2-yl)methylene]-3-methyl-2-phenyl- 8H-pyrrolo[3,2-f]quinoxalin-8-one [C]”, the “SAPK % Inhibition” value is at least 50%. Turning to `COc1cc[nH]c1/C=C1\C(=O)Nc2ccc3nc(C)c(C)nc3c21` [A, (Z)-7,9-Dihydro-2,3-dimethyl-9-[(3-methoxy-1H-pyrrol-2-yl)methylene]-8H-pyrrolo-[3,2-f]quinoxalin-8-one], the inhibition at 0.1 µM (read-out: SAPK % Inhibition) was at least 50%.

The term inhibition denotes the relative decrease from the control value, in per cent.
